Test system: lipid peroxidation products
Test: Thioglycollate/Zymosan-induced peritonitis model: lipid oxidation products in peritoneal lavage by electrospray ionization tandem mass spectrometry
Type: in vivo, mice
Settings: for 13-HODE MEAN / 13-HODE MEDIAN / Prostaglandin F2α (PGF2α) MEAN / Prostaglandin F2α (PGF2α) MEDIAN / 9-HETE/AA (ratio) MEAN / 9-HETE/AA (ratio) MEDIAN / 9-HODE MEAN / 9-HODE MEDIAN / 9-HETE MEAN / 9-HETE MEDIAN / Linoleic Acid MEAN / Linoleic Acid MEDIAN / Arachidonic Acid MEAN / Arachidonic Acid MEDIAN / PGF2a/AA (ratio) MEAN / PGF2a/AA (ratio) MEDIAN / 13-HODE/AA (ratio) MEAN / 13-HODE/AA (ratio) MEDIAN / 9-HODE/LA (ratio) MEAN / 9-HODE/LA (ratio) MEDIAN / 11-HETE MEAN / 11-HETE MEDIAN / 5-HETE MEAN / 5-HETE MEDIAN / 11-HETE/AA (ratio) MEAN / 11-HETE/AA (ratio) MEDIAN / 5-HETE/AA (ratio) MEAN / 5-HETE/AA (ratio) MEDIAN: 500 mg/kg oral gavage
Description: Thioglycollate/Zymosan—Induced Peritonitis Model: Wild-type mice were administered either 500 mg/kg body weight of disodium disuccinate astaxanthin (ddAst/Cardax™) in an oil emulsion vehicle, or normal saline (NS) as a negative control, by oral gavage at 24 hours intervals beginning 7 days prior to the induction of peritonitis. Peritonitis was induced experimentally as follows: mice were injected intraperitoneally with 1 ml of 4% by weight thioglycollate (Tg) broth, to induce the recruitment of proinflammatory cells to the peritoneum. Either 16 hours or 72 hours after recruitment, approximately half of the mice were injected intraperitoneally with 250 mg/kg body weight of zymosan (Z) for a further 4 hours. The mice not receiving zymosan underwent no further treatment. Peritoneal lavage was performed in control animals or animals treated with (ddAst) 16 hours post Tg injection, or 20 h following the combination of both Tg injection (16 hours) followed by Z injection (4 hours), as indicated (Tg/Z). Peritoneal lavages were performed with phosphate-buffered saline containing antioxidant (0.1 mM butylated hydroxytoluene (BHT)) and 2 mM of the metal chelator diethylenetriamine pentaacetic acid (DTPA) according to established practices in the art. The lavage suspensions were transferred to screw-capped tubes under an argon atmosphere, and immediately centrifuged at 1000 rpm in a table top microcentrifuge for 10 min at 4° C. to remove whole cells and debris. All analyses of lipid peroxidation products was performed on cell-free lavage supernatants. Cell pellets were resuspended in phosphate-buffered saline containing 0.1 mM BHT and 0.1 mM DTPA, and differential cell counts (macrophages, monocytes, eosinophils, lymphocytes, neutrophils, and erythrocytes) were performed on cytospun preparations of isolated cells according to established procedures in the art.
Electrospray ionization tandem mass spectrometry was used to simultaneously quantify individual molecular species of HETEs, HPETEs, the prostaglandin PGF2α, F2-isoprostanoids, hydroxy- and hydroperoxy-octadecadienoic acids (H(P)ODEs), and their precursors, arachidonic acid (AA) and linoleic acid (LA). Additionally, the molar ratios of o-tyrosine (oY/F). were measured.

[1] = 16 Hour Thioglycollate/4 Hour Zymosan, P-VALUE 0.165
[2] = 16 Hour Thioglycollate/4 Hour Zymosan, P-VALUE 0.250
[3] = 16 Hour Thioglycollate/4 Hour Zymosan, P-VALUE 0.272 NP
[4] = 16 Hour Thioglycollate/4 Hour Zymosan, P-VALUE 0.299
[5] = 16 Hour Thioglycollate/4 Hour Zymosan, P-VALUE 0.354
[6] = 16 Hour Thioglycollate/4 Hour Zymosan, P-VALUE 0.557
[7] = 16 Hour Thioglycollate/4 Hour Zymosan, P-VALUE 0.685 NP
[8] = 16 Hour Thioglycollate/4 Hour Zymosan, P-VALUE 0.772 NP
[9] = 16 Hour Thioglycollate/4 Hour Zymosan, P-VALUE 0.862 NP
[10] = 16 Hour Thioglycollate/4 Hour Zymosan, P-VALUE 0.900
[11] = 16 Hour Thioglycollate/4 Hour Zymosan, P-VALUE 0.954 NP
[12] = 16 Hour Thioglycollate/4 Hour Zymosan, P-VALUE 1.000 NP
[13] = 16 Hour Thioglycollate/4 Hour Zymosan
[14] = 16 Hour Thioglycollate, P-VALUE 0.018
[15] = 16 Hour Thioglycollate, P-VALUE 0.040
[16] = 16 Hour Thioglycollate, P-VALUE 0.096
[17] = 16 Hour Thioglycollate, P-VALUE 0.120
[18] = 16 Hour Thioglycollate, P-VALUE 0.172
[19] = 16 Hour Thioglycollate, P-VALUE 0.227 NP
[20] = 16 Hour Thioglycollate, P-VALUE 0.318 NP
[21] = 16 Hour Thioglycollate, P-VALUE 0.372 NP
[22] = 16 Hour Thioglycollate, P-VALUE 0.564 NP
[23] = 16 Hour Thioglycollate, P-VALUE 0.793 NP
[24] = 16 Hour Thioglycollate, P-VALUE 0.875 NP
[25] = 16 Hour Thioglycollate, P-VALUE 0.958 NP
[26] = 16 Hour Thioglycollate, P-VALUE 0.982
[27] = 16 Hour Thioglycollate, P-VALUE 0.986
[28] = 72 Hour Thioglycollate/4 Hour Zymosan, P-VALUE 0.001 NP
[29] = 72 Hour Thioglycollate/4 Hour Zymosan, P-VALUE 0.002 NP
[30] = 72 Hour Thioglycollate/4 Hour Zymosan, P-VALUE 0.006
[31] = 72 Hour Thioglycollate/4 Hour Zymosan, P-VALUE 0.008
[32] = 72 Hour Thioglycollate/4 Hour Zymosan, P-VALUE 0.010
[33] = 72 Hour Thioglycollate/4 Hour Zymosan, P-VALUE 0.018 NP
[34] = 72 Hour Thioglycollate/4 Hour Zymosan, P-VALUE 0.056 NP
[35] = 72 Hour Thioglycollate/4 Hour Zymosan, P-VALUE 0.118 NP
[36] = 72 Hour Thioglycollate/4 Hour Zymosan, P-VALUE 0.271
[37] = 72 Hour Thioglycollate/4 Hour Zymosan, P-VALUE 0.385 NP
[38] = 72 Hour Thioglycollate/4 Hour Zymosan, P-VALUE 0.629

CC1=C(/C=C/C(C)=C/C=C/C(C)=C/C=C/C=C(C)/C=C/C=C(C)/C=C/C2=C(C)C(=O)C(OC(=O)CCC(=O)O)CC2(C)C)C(C)(C)CC(OC(=O)CCC(=O)O)C1=O (stereo not drawn) [Cardax, disodium disuccinate astaxanthin]
13-HODE MEAN [1]: 5.689 pmol | 13-HODE MEDIAN [1]: 4.768 pmol | Prostaglandin F2α (PGF2α) MEAN [2]: 0.038 pmol | Prostaglandin F2α (PGF2α) MEDIAN [2]: 0.035 pmol | 9-HETE/AA (ratio) MEAN [3]: 0.529 | 9-HETE/AA (ratio) MEDIAN [3]: 0.472 | 9-HODE MEAN [4]: 2.767 pmol | 9-HODE MEDIAN [4]: 2.825 pmol | 9-HETE MEAN [5]: 0.559 pmol | 9-HETE MEDIAN [5]: 0.612 pmol | Linoleic Acid MEAN [6]: 13158 pmol | Linoleic Acid MEDIAN [6]: 10509 pmol | Arachidonic Acid MEAN [7]: 1208.5 pmol | Arachidonic Acid MEDIAN [7]: 1039.6 pmol | PGF2a/AA (ratio) MEAN [7]: 0.038 | PGF2a/AA (ratio) MEDIAN [7]: 0.025 | 13-HODE/AA (ratio) MEAN [8]: 0.456 | 13-HODE/AA (ratio) MEDIAN [8]: 0.376 | 9-HODE/LA (ratio) MEAN [9]: 0.245 | 9-HODE/LA (ratio) MEDIAN [9]: 0.201 | 11-HETE MEAN [9]: 0.654 pmol | 11-HETE MEDIAN [9]: 0.450 pmol | 5-HETE MEAN [10]: 1.082 pmol | 5-HETE MEDIAN [10]: 0.953 pmol | 11-HETE/AA (ratio) MEAN [11]: 0.669 | 11-HETE/AA (ratio) MEDIAN [11]: 0.453 | 5-HETE/AA (ratio) MEAN [12]: 0.997 | 5-HETE/AA (ratio) MEDIAN [12]: 0.770 | 5-oxo-ETE (pmol), MEAN [13]: 0.085 pmol | 5-oxo-ETE (ratio), MEAN [13]: 0.080 ratio | 8-iso-F2a (pmol), MEAN [13]: 0.012 pmol | 8-iso-F2a/AA (ratio), MEAN [13]: 0.011 ratio | 5-oxo-ETE (pmol), MEDIAN [13]: 0.083 pmol | 5-oxo-ETE (ratio), MEDIAN [13]: 0.081 ratio | 8-iso-F2a (pmol), MEDIAN [13]: 0.000 pmol | 8-iso-F2a/AA (ratio), MEDIAN [13]: 0.000 ratio | Arachidonic Acid MEAN [14]: 1791.6 pmol | Arachidonic Acid MEDIAN [14]: 1854.3 pmol | Linoleic Acid MEAN [15]: 22739 pmol | Linoleic Acid MEDIAN [15]: 22907 pmol | 13-HODE/AA (ratio) MEAN [16]: 0.905 | 13-HODE/AA (ratio) MEDIAN [16]: 0.920 | 9-HODE MEAN [17]: 5.367 pmol | 9-HODE MEDIAN [17]: 3.831 pmol | Prostaglandin F2α (PGF2α) MEAN [18]: 0.037 pmol | Prostaglandin F2α (PGF2α) MEDIAN [18]: 0.033 pmol | 9-HETE/AA (ratio) MEAN [19]: 0.476 | 9-HETE/AA (ratio) MEDIAN [19]: 0.448 | 5-HETE MEAN [20]: 0.334 pmol | 5-HETE MEDIAN [20]: 0.255 pmol | 11-HETE MEAN [21]: 0.434 pmol | 11-HETE MEDIAN [21]: 0.329 pmol | 9-HODE/LA (ratio) MEAN [22]: 0.292 | 9-HODE/LA (ratio) MEDIAN [22]: 0.255 | 11-HETE/AA (ratio) MEAN [23]: 0.239 | 11-HETE/AA (ratio) MEDIAN [23]: 0.195 | 5-HETE/AA (ratio) MEAN [24]: 0.218 | 5-HETE/AA (ratio) MEDIAN [24]: 0.151 | 9-HETE MEAN [25]: 0.826 pmol | 9-HETE MEDIAN [25]: 0.718 pmol | 13-HODE MEAN [26]: 18.838 pmol | 13-HODE MEDIAN [26]: 15.191 pmol | PGF2a/AA (ratio) MEAN [27]: 0.034 | PGF2a/AA (ratio) MEDIAN [27]: 0.018 | 5-oxo-ETE (pmol), MEAN (16 Hour Thioglycollate): 0.128 pmol | 5-oxo-ETE (ratio), MEAN (16 Hour Thioglycollate): 0.056 ratio | 8-iso-F2a (pmol), MEAN (16 Hour Thioglycollate): 0.052 pmol | 8-iso-F2a/AA (ratio), MEAN (16 Hour Thioglycollate): 0.044 ratio | 5-oxo-ETE (pmol), MEDIAN (16 Hour Thioglycollate): 0.078 pmol | 5-oxo-ETE (ratio), MEDIAN (16 Hour Thioglycollate): 0.067 ratio | 8-iso-F2a (pmol), MEDIAN (16 Hour Thioglycollate): 0.069 pmol | 8-iso-F2a/AA (ratio), MEDIAN (16 Hour Thioglycollate): 0.034 ratio | Arachidonic Acid MEAN [28]: 3554.3 pmol | Arachidonic Acid MEDIAN [28]: 2429.5 pmol | 5-HETE/AA (ratio) MEAN [29]: 0.369 | 5-HETE/AA (ratio) MEDIAN [29]: 0.333 | 9-HODE/LA (ratio) MEAN [30]: 0.132 | 9-HODE/LA (ratio) MEDIAN [30]: 0.134 | 11-HETE/AA (ratio) MEAN [31]: 0.253 | 11-HETE/AA (ratio) MEDIAN [31]: 0.237 | PGF2a/AA (ratio) MEAN [32]: 0.011 | PGF2a/AA (ratio) MEDIAN [32]: 0.012 | Linoleic Acid MEAN [33]: 33183 pmol | Linoleic Acid MEDIAN [33]: 27585 pmol | 9-HETE/AA (ratio) MEAN [34]: 0.253 | 9-HETE/AA (ratio) MEDIAN [34]: 0.244 | 9-HETE MEAN [35]: 0.917 pmol | 9-HETE MEDIAN [35]: 0.687 pmol | 13-HODE/AA (ratio) MEAN [35]: 0.229 | 13-HODE/AA (ratio) MEDIAN [35]: 0.186 | 13-HODE MEAN [36]: 7.181 pmol | 13-HODE MEDIAN [36]: 6.732 pmol | 5-HETE MEAN [37]: 1.236 pmol | 5-HETE MEDIAN [37]: 0.997 pmol | Prostaglandin F2α (PGF2α) MEAN [38]: 0.040 pmol | Prostaglandin F2α (PGF2α) MEDIAN [38]: 0.039 pmol

From patent publication US7691901B2, “Carotenoid analogs or derivatives for the inhibition and amelioration of inflammation” (Cardax Pharmaceuticals Inc., priority 2004, dated 2010)
